# Reference: PMC11968843, “Sulphostin-inspired N-phosphonopiperidones as selective covalent DPP8 and DPP9 inhibitors” (Nature Communications, 2025)
# Tests used:
# Assay in all cases: Competitive ABPP / direct target identification with alkyne probe 9 in HEK293 cell lysates
# Type in all cases: binding, H. sapiens
# [1] = target: T1, HEK293 cell lysates (proteome-wide targets of probe 9) (Homo sapiens, UniProt Q14974); details: protein KPNB1
# T1 construct: endogenous in cells; host or cells: HEK293 cell lysate
# [2] = target: T2, HEK293 cell lysates (proteome-wide targets of probe 9) (Homo sapiens, UniProt P52292); details: protein KPNA2
# T2 construct: endogenous in cells; host or cells: HEK293 cell lysate
# [3] = target: T3, HEK293 cell lysates (proteome-wide targets of probe 9) (Homo sapiens, UniProt P62826); details: protein RAN
# T3 construct: endogenous in cells; host or cells: HEK293 cell lysate
# [4] = target: T4, HEK293 cell lysates (proteome-wide targets of probe 9) (Homo sapiens, UniProt Q9H6P5); details: protein TASP1 (Threonine aspartase 1)
# T4 construct: endogenous in cells; host or cells: HEK293 cell lysate
# T4 sequence (Q9H6P5 whole entry): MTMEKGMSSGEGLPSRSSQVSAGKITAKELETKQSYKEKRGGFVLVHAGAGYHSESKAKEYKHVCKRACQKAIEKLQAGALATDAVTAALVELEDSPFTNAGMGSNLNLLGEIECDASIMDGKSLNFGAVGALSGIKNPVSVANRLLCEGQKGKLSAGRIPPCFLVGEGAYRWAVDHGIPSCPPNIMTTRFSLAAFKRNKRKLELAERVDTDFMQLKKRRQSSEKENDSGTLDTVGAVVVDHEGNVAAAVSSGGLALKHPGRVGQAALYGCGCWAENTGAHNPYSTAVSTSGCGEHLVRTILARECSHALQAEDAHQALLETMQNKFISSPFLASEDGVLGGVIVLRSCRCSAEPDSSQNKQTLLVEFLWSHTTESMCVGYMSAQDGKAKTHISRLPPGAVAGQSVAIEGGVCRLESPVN
# [5] = target: T5, HEK293 cell lysates (proteome-wide targets of probe 9) (Homo sapiens, UniProt O60506); details: protein SYNCRIP
# T5 construct: endogenous in cells; host or cells: HEK293 cell lysate
# [6] = target: T6, HEK293 cell lysates (proteome-wide targets of probe 9) (Homo sapiens, UniProt P63104); details: protein YWHAZ
# T6 construct: endogenous in cells; host or cells: HEK293 cell lysate
# T6 sequence (P63104 whole entry): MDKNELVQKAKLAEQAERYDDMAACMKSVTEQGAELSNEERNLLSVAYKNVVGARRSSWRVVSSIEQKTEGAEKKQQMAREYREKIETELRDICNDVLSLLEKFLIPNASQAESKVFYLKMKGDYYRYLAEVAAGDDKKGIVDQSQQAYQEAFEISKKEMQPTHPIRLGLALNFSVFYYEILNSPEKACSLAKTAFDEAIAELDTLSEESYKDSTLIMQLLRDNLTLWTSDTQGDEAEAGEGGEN
# [7] = target: T7, HEK293 cell lysates (proteome-wide targets of probe 9) (Homo sapiens, UniProt P08758); details: protein ANXA5
# T7 construct: endogenous in cells; host or cells: HEK293 cell lysate
# T7 sequence (P08758 whole entry): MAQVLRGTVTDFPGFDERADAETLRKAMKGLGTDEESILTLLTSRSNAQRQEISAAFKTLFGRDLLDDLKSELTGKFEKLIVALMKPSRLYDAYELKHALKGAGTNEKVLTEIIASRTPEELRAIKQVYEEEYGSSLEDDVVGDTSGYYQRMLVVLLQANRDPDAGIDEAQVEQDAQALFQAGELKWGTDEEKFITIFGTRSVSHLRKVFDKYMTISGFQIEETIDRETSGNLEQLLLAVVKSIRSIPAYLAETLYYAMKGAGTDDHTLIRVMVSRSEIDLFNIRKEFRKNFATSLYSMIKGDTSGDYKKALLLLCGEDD
# [8] = target: T8, HEK293 cell lysates (proteome-wide targets of probe 9) (Homo sapiens, UniProt Q12802); details: protein AKAP13
# T8 construct: endogenous in cells; host or cells: HEK293 cell lysate
# [9] = target: T9, HEK293 cell lysates (proteome-wide targets of probe 9) (Homo sapiens, UniProt P07900); details: protein HSP90AA1
# T9 construct: endogenous in cells; host or cells: HEK293 cell lysate
# [10] = target: T10, HEK293 cell lysates (proteome-wide targets of probe 9) (Homo sapiens, UniProt P00338); details: protein LDHA
# T10 construct: endogenous in cells; host or cells: HEK293 cell lysate
# [11] = target: T11, HEK293 cell lysates (proteome-wide targets of probe 9) (Homo sapiens, UniProt P46781); details: protein RPS9
# T11 construct: endogenous in cells; host or cells: HEK293 cell lysate
# [12] = target: T12, HEK293 cell lysates (proteome-wide targets of probe 9) (Homo sapiens, UniProt P83731); details: protein RPL24
# T12 construct: endogenous in cells; host or cells: HEK293 cell lysate
# [13] = target: T13, HEK293 cell lysates (proteome-wide targets of probe 9) (Homo sapiens, UniProt P60842); details: protein EIF4A1
# T13 construct: endogenous in cells; host or cells: HEK293 cell lysate
# [14] = target: T14, HEK293 cell lysates (proteome-wide targets of probe 9) (Homo sapiens, UniProt Q14103); details: protein HNRNPD
# T14 construct: endogenous in cells; host or cells: HEK293 cell lysate
# [15] = target: T15, HEK293 cell lysates (proteome-wide targets of probe 9) (Homo sapiens, UniProt P31948); details: protein STIP1
# T15 construct: endogenous in cells; host or cells: HEK293 cell lysate
# [16] = target: T16, HEK293 cell lysates (proteome-wide targets of probe 9) (Homo sapiens, UniProt Q02878); details: protein RPL6
# T16 construct: endogenous in cells; host or cells: HEK293 cell lysate
# [17] = target: T17, HEK293 cell lysates (proteome-wide targets of probe 9) (Homo sapiens, UniProt P09211); details: protein GSTP1
# T17 construct: endogenous in cells; host or cells: HEK293 cell lysate
# T17 sequence (P09211 whole entry): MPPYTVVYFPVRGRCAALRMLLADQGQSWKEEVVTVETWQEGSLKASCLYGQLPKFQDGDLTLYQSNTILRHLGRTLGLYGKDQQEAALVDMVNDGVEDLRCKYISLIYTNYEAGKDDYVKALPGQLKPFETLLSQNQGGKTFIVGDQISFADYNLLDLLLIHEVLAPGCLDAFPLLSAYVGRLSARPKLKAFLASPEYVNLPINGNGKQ
# [18] = target: T18, HEK293 cell lysates (proteome-wide targets of probe 9) (Homo sapiens, UniProt P55060); details: protein CSE1L
# T18 construct: endogenous in cells; host or cells: HEK293 cell lysate
# [19] = target: T19, HEK293 cell lysates (proteome-wide targets of probe 9) (Homo sapiens, UniProt P12277); details: protein CKB
# T19 construct: endogenous in cells; host or cells: HEK293 cell lysate
# T19 sequence (P12277 whole entry): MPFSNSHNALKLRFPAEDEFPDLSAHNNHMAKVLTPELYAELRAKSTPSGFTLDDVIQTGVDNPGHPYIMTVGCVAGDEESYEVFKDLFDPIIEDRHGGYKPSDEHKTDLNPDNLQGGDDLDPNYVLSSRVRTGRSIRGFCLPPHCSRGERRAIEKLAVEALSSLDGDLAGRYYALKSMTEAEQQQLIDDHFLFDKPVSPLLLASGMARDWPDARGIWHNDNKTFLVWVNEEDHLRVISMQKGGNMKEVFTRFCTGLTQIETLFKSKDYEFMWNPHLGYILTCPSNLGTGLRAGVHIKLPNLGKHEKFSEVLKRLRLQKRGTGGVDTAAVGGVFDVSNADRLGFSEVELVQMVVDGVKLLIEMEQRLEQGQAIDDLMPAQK
# [20] = target: T20, HEK293 cell lysates (proteome-wide targets of probe 9) (Homo sapiens, UniProt P00558); details: protein PGK1
# T20 construct: endogenous in cells; host or cells: HEK293 cell lysate
# [21] = target: T21, HEK293 cell lysates (proteome-wide targets of probe 9) (Homo sapiens, UniProt P30041); details: protein PRDX6
# T21 construct: endogenous in cells; host or cells: HEK293 cell lysate
# [22] = target: T22, HEK293 cell lysates (proteome-wide targets of probe 9) (Homo sapiens, UniProt P06748); details: protein NPM1
# T22 construct: endogenous in cells; host or cells: HEK293 cell lysate
# [23] = target: T23, HEK293 cell lysates (proteome-wide targets of probe 9) (Homo sapiens, UniProt Q96RQ3); details: protein MCCC1
# T23 construct: endogenous in cells; host or cells: HEK293 cell lysate
# T23 sequence (Q96RQ3 42-725): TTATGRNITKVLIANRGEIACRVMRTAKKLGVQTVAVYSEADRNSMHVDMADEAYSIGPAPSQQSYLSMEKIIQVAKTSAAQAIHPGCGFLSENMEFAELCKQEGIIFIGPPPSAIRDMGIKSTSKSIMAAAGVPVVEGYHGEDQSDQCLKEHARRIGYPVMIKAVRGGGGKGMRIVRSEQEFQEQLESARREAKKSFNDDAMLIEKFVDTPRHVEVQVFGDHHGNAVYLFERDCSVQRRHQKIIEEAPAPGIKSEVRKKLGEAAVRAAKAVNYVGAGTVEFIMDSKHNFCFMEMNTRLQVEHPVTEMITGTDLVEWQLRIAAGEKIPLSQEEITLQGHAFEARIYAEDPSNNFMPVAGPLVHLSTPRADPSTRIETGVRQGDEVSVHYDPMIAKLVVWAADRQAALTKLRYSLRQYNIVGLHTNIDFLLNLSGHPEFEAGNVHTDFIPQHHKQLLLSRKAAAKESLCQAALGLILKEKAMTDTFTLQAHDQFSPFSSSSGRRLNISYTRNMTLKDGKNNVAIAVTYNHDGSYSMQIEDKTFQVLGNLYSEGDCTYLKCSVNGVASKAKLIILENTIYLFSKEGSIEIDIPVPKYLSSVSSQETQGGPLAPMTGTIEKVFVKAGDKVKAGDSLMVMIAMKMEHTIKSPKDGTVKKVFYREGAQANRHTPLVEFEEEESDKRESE
# [24] = target: T24, HEK293 cell lysates (proteome-wide targets of probe 9) (Homo sapiens, UniProt P11498); details: protein PC
# T24 construct: endogenous in cells; host or cells: HEK293 cell lysate
# [25] = target: T25, HEK293 cell lysates (proteome-wide targets of probe 9) (Homo sapiens, UniProt Q8NC51); details: protein SERBP1
# T25 construct: endogenous in cells; host or cells: HEK293 cell lysate
# T25 sequence (Q8NC51 whole entry): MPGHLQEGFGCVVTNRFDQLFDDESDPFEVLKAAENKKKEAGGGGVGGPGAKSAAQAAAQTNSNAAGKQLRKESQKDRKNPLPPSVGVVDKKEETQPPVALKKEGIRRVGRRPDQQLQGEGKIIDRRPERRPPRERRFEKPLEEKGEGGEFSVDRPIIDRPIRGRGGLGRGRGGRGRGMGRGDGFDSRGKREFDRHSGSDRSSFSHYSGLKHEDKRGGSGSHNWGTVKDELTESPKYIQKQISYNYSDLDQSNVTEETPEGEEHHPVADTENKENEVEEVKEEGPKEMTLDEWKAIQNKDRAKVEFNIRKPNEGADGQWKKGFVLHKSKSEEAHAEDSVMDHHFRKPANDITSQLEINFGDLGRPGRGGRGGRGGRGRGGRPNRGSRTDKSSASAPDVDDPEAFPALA
# [26] = target: T26, HEK293 cell lysates (proteome-wide targets of probe 9) (Homo sapiens, UniProt P08238); details: protein HSP90AB1
# T26 construct: endogenous in cells; host or cells: HEK293 cell lysate
# T26 sequence (P08238 whole entry): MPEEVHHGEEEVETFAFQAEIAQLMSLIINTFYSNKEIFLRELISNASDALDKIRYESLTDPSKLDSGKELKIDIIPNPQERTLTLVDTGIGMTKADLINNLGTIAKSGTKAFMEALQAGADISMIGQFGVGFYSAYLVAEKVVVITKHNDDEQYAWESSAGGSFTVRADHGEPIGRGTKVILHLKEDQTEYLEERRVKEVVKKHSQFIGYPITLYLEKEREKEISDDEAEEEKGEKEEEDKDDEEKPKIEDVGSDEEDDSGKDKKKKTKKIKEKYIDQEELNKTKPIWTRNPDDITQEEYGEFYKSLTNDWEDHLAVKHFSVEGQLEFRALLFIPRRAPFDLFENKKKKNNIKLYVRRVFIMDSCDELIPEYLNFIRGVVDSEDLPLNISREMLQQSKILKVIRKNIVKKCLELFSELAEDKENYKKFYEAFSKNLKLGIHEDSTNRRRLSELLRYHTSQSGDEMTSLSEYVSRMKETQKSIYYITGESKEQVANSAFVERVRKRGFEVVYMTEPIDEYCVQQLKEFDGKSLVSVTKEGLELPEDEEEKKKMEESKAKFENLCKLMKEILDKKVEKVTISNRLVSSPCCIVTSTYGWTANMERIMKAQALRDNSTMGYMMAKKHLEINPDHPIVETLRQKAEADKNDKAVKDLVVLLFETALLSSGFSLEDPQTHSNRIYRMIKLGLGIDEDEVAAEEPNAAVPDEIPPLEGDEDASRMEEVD
# [27] = target: T27, HEK293 cell lysates (proteome-wide targets of probe 9) (Homo sapiens, UniProt P14923); details: protein JUP
# T27 construct: endogenous in cells; host or cells: HEK293 cell lysate
# [28] = target: T28, HEK293 cell lysates (proteome-wide targets of probe 9) (Homo sapiens, UniProt P60866); details: protein RPS20
# T28 construct: endogenous in cells; host or cells: HEK293 cell lysate
# [29] = target: T29, HEK293 cell lysates (proteome-wide targets of probe 9) (Homo sapiens, UniProt P04406); details: protein GAPDH
# T29 construct: endogenous in cells; host or cells: HEK293 cell lysate
# T29 sequence (P04406 whole entry): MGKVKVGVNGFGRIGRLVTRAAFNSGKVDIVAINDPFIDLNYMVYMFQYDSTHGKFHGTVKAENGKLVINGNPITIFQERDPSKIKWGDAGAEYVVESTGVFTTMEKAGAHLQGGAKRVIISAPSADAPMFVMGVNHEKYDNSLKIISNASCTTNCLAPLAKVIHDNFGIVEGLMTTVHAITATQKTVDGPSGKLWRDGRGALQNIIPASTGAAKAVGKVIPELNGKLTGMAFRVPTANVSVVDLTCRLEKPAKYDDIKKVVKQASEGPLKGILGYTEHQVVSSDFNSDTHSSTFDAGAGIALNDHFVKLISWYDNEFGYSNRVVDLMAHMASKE
# [30] = target: T30, HEK293 cell lysates (proteome-wide targets of probe 9) (Homo sapiens, UniProt P42704); details: protein LRPPRC
# T30 construct: endogenous in cells; host or cells: HEK293 cell lysate
# [31] = target: T31, HEK293 cell lysates (proteome-wide targets of probe 9) (Homo sapiens, UniProt Q08211); details: protein DHX9
# T31 construct: endogenous in cells; host or cells: HEK293 cell lysate
# T31 sequence (Q08211 whole entry): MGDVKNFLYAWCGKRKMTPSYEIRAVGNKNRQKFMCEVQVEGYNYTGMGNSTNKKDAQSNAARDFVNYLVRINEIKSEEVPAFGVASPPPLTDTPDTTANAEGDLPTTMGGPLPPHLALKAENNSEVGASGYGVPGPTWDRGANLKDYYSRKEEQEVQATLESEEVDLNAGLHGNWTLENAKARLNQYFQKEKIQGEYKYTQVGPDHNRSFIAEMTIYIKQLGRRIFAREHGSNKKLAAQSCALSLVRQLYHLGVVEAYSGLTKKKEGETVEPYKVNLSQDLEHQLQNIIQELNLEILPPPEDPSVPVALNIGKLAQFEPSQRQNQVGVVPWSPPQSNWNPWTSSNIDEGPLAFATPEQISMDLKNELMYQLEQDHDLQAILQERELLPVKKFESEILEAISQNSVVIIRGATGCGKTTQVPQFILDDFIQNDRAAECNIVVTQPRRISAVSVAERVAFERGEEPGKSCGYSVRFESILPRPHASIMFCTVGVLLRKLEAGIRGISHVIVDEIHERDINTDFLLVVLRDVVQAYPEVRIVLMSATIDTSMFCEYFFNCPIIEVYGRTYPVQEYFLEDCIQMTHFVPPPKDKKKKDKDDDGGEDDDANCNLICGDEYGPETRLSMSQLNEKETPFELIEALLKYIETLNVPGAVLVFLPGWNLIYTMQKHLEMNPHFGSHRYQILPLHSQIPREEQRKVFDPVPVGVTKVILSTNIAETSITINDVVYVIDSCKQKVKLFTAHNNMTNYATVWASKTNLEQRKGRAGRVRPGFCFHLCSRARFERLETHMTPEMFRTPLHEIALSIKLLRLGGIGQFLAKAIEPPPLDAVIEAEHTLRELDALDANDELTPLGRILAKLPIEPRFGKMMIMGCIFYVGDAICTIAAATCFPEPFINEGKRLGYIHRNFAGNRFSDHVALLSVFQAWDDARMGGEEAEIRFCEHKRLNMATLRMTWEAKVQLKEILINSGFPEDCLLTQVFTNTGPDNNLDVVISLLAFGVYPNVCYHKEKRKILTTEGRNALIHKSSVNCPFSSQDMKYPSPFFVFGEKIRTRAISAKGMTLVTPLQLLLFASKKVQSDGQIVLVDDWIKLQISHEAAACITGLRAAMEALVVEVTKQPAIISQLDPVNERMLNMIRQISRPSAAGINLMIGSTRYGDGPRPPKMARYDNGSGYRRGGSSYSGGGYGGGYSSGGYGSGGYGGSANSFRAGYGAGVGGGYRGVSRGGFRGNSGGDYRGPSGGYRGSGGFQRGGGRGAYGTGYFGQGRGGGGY
smiles,measurement,setting,value
C#CCCCP(=O)(OCC)N1CCCC(N)C1=O.O=C(O)C(F)(F)F (mixture of isomers) [Compound 9],Log2-fold change (9/DMSO),[1],1.065
same,Log2-fold change (9/DMSO),[2],0.6086
same,Log2-fold change (9/DMSO),[3],0.5658
same,Log2-fold change (9/DMSO),[4],-4.505
same,Log2-fold change (9/DMSO),[5],0.3304
same,Log2-fold change (9/DMSO),[6],0.2647
same,Log2-fold change (9/DMSO),[7],-0.9261
same,Log2-fold change (9/DMSO),[8],-0.9342
same,Log2-fold change (9/DMSO),[9],-0.06179
same,Log2-fold change (9/DMSO),[10],-0.2121
same,Log2-fold change (9/DMSO),[11],0.8119
same,Log2-fold change (9/DMSO),[12],-0.3893
same,Log2-fold change (9/DMSO),[13],0.03837
same,Log2-fold change (9/DMSO),[14],1.662
same,Log2-fold change (9/DMSO),[15],1.191
same,Log2-fold change (9/DMSO),[16],0.5143
same,Log2-fold change (9/DMSO),[17],1.848
same,Log2-fold change (9/DMSO),[18],0.5768
same,Log2-fold change (9/DMSO),[19],0.9157
same,Log2-fold change (9/DMSO),[20],-0.05307
same,Log2-fold change (9/DMSO),[21],0.7412
same,Log2-fold change (9/DMSO),[22],0.3807
same,Log2-fold change (9/DMSO),[23],-0.5895
same,Log2-fold change (9/DMSO),[24],-0.6769
same,Log2-fold change (9/DMSO),[25],-0.5195
same,Log2-fold change (9/DMSO),[26],0.02806
same,Log2-fold change (9/DMSO),[27],0.133
same,Log2-fold change (9/DMSO),[28],0.9458
same,Log2-fold change (9/DMSO),[29],-0.2878
same,Log2-fold change (9/DMSO),[30],0.5243
same,Log2-fold change (9/DMSO),[31],-0.5054
CCCCCc1ccc(SCCP(=O)(OCC)N2CCC[C@H](N)C2=O)cc1.O=C(O)C(F)(F)F (some centres unmarked) [Compound 16],Log2-fold change (16/9),[1],-1.716
same,Log2-fold change (16/9),[2],-0.6819
same,Log2-fold change (16/9),[3],-1.91
same,Log2-fold change (16/9),[4],0.8543
same,Log2-fold change (16/9),[5],-1.04
same,Log2-fold change (16/9),[6],0.4135
same,Log2-fold change (16/9),[7],0.8558
same,Log2-fold change (16/9),[8],0.6936
same,Log2-fold change (16/9),[9],-0.09553
same,Log2-fold change (16/9),[10],0.1049
same,Log2-fold change (16/9),[11],0.2438
same,Log2-fold change (16/9),[12],1.34
same,Log2-fold change (16/9),[13],-1.788
same,Log2-fold change (16/9),[14],-0.4231
same,Log2-fold change (16/9),[15],-0.3266
same,Log2-fold change (16/9),[16],0.35
same,Log2-fold change (16/9),[17],-1.311
same,Log2-fold change (16/9),[18],0.04384
same,Log2-fold change (16/9),[19],-0.7041
same,Log2-fold change (16/9),[20],0.07234
same,Log2-fold change (16/9),[21],0.07848
same,Log2-fold change (16/9),[22],-0.43
same,Log2-fold change (16/9),[23],0.1036
same,Log2-fold change (16/9),[24],0.1121
same,Log2-fold change (16/9),[25],-1.208
same,Log2-fold change (16/9),[26],-0.3526
same,Log2-fold change (16/9),[27],-0.03524
same,Log2-fold change (16/9),[28],-0.8733
same,Log2-fold change (16/9),[29],0.4935
same,Log2-fold change (16/9),[30],-0.09939
same,Log2-fold change (16/9),[31],-0.1923
